Assay results reported in US9814778B2, “Ionically crosslinked polyelectrolytes as underwater adhesives as controlled release vehicles” (The University of Toledo, priority 2014, dated 2017).

Columns and labels:
[1] = Dye loading efficiency and loading capacity of dye-loaded coacervates (UV-Vis of supernatant); type: physicochemical
Method: All solutions were adjusted to pH 7 using HCl and NaOH prior to mixing. The mixtures were than centrifuged at 15,000 rpm for 90 min using an Ependorf centrifuge. […] The loading capacity (LC) and loading efficiency (LE) for each loading procedure was calculated by subtracting the mass of dye in the supernatant from the total mass of dye originally in the solutions in the microcentrifuge tubes. The total dye mass in the supernatant was determined by measuring the supernatant mass in each tube and determining the supernatant dye concentration using UV-Vis spectroscopy (Varian Cary 50 Spectrophotometer) and the absorbance at a wavelength of 614 nm (ε=9.57×103 m2/mol) and 555 nm (ε=9.82×103 m2/mol) for Fast Green FCF and Rhodamine B, respectively. The LC and LE were then calculated using the following equations: […]
Similarly, the LEs of the dye-loaded complexes was measured at a constant initial dye concentration of 1 mg/ml while the PAH concentration was varied. The dye-loaded complex samples were prepared as outlined above; however, the PAH concentration was varied (between 2.5 and 10.0 wt %). […] The LC- and LE-values were then determined using Equations 1 and 2.

[2] = Dye release from dye-loaded complexes in 1×PBS at 37° C. (UV-Vis); type: physicochemical; conditions: PAH/PPi and PAH/TPP complexes, 7-8 mm plugs, time span of up to 164 days
Method: The supernatant was removed from the microcentrifuge tube, and the inside of the tube was rinsed with DI water to ensure all excess supernatant was removed. The release medium, 1 ml of 1×PBS, was then added to the microcentrifuge tube. During the release evaluations, the contents of the microcentrifuge tube was mixed at 400 rpm in an Ependorf Thermomixer at 37° C. The old PBS solution was replaced with fresh PBS daily. UV-Vis spectroscopy was used to determine the amount of dye released within this one day interval. The concentration of dye in the PBS was determined using the absorbance of the solution as described above. These release studies were run until the amount of dye released in one day became so low that a discernable peak in the UV-Vis spectrum could not be obtained. The weight of the adhesives was also tracked during the release process using the procedure described above. Each release experiment was repeated thrice to ensure reproducibility. An additional release study was run (using the same complex/dye compositions) with tap water at room temperature as the release medium.
The released dye concentration in the PBS was determined using UV-Vis spectroscopy, with the PBS being replaced daily. This procedure was repeated until discernable UV-Vis peaks could no longer be obtained from the PBS samples in order to obtain release profiles. […]

PAH/PPi complexes = experiment: Isothermal titration calorimetry of dyes into PAH/PPi dispersion; type: binding; conditions: pH 7
Method: (§1) The Fast Green FCF and Rhodamine B solutions were then prepared at concentrations of 0.43 and 0.80 wt %, respectively. All solutions were adjusted to pH 7 using HCl and NaOH. ITC experiments were run by placing the PAH/PPi or PAH/TPP complex solutions in the sample cell, and loading the dye solution into the injector. The dye solutions were then titrated using twenty 15-μL injections, with 20 min equilibration intervals between each injection. The contents of the sample cell were stirred at 307 rpm with the impeller-shaped injector tip. The instrument software was used to integrate the raw ITC data obtained from these titrations. The heat of dilution, which was obtained by titrating the dye solutions into DI water, was then subtracted from the integrated data to obtain the final thermograms. To ensure reproducibility, each ITC test was repeated twice.
(§2) Fast Green FCF and Rhodamine B are anionic and cationic, respectively. ITC was used to probe the binding of these dye molecules to the ionically crosslinked networks. In ITC the heat required to maintain a sample cell (which contains a binding substrate solution) at a constant temperature upon the addition of a binding ligand solution is measured, with endothermic or exothermic peaks in the ITC raw data indicating binding. […]

PAH/TPP complexes = experiment: Isothermal titration calorimetry of dyes into PAH/TPP dispersion; type: binding; conditions: pH 7
Method: as §1, §2

[3] = in solution; cited from earlier work
[4] = PAH/PPi, initial dye 0.5 mg/ml, 10.0 wt % PAH
[5] = PAH/PPi, initial dye 1 mg/ml, 5% PAH
[6] = PAH/PPi, initial dye 1 mg/ml, 10% PAH
[7] = PAH/PPi, initial dye 1 mg/ml, 10.0 wt % PAH
[8] = PAH/PPi, initial dye 4 mg/ml, 10.0 wt % PAH
[9] = PAH/TPP, initial dye 0.5 mg/ml, 10.0 wt % PAH
[10] = PAH/TPP, initial dye 1 mg/ml, 5% PAH
[11] = PAH/TPP, initial dye 1 mg/ml, 10% PAH
[12] = PAH/TPP, initial dye 1 mg/ml, 10.0 wt % PAH
[13] = PAH/TPP, initial dye 4 mg/ml, 10.0 wt % PAH

In the case of `CCN(Cc1cccc(S(=O)(=O)[O-])c1)c1ccc(C(=C2C=CC(=[N+](CC)Cc3cccc(S(=O)(=O)[O-])c3)C=C2)c2ccc(O)cc2S(=O)(=O)[O-])cc1.[Na+].[Na+]` [Fast Green, Fast Green FCF], the “Loading Capacity” value [1, 4] is reported as 3.16 ± 0.17 mg/mL, the “Loading Efficiency” value [1, 4] is reported as 56.48 ± 3.04% and the “Loading Efficiency” value [1, 5] is reported as 61.69 ± 1.13%. The “Loading Efficiency” value [1, 6] was 63.03 ± 1.37%, the “Loading Capacity” value [1, 7] was 7.04 ± 0.15 mg/mL and the “Loading Capacity” value [1, 8] was 30.62 ± 0.93 mg/mL. For the same compound, the “Loading Efficiency” value [1, 8] was 68.54 ± 2.09%, the “Loading Capacity” value [1, 9] was 3.31 ± 0.07 mg/mL and the “Loading Efficiency” value [1, 9] was 64.01 ± 1.45%. For the same compound, the “Loading Efficiency” value [1, 10] was 72.40 ± 0.53%, the “Loading Efficiency” value [1, 11] was 72.94 ± 3.09% and the “Loading Capacity” value [1, 12] was 7.54 ± 0.32 mg/mL. The “Loading Capacity” value [1, 13] was 30.89 ± 1.43 mg/mL, the “Loading Efficiency” value [1, 13] was 74.74 ± 3.47% and the “fraction of payload released” value [2] was under 5%. For the same compound, the “binding to the ionically crosslinked network (ITC)” value (from here on “binding”) (PAH/PPi complexes) was “strong cooperative binding” and the “binding” value (PAH/TPP complexes) was “strong cooperative binding”.
With `CCN(CC)c1ccc2c(-c3ccccc3C(=O)O)c3ccc(=[N+](CC)CC)cc-3oc2c1.[Cl-]` [Rhodamine B] the “Loading Capacity” value [1, 4] was 0.55 ± 0.16 mg/mL, the “Loading Efficiency” value [1, 4] was 9.83 ± 2.79% and the “Loading Efficiency” value ([1]; PAH/PPi, initial dye 1 mg/ml, 2.5% PAH) was 1.49 ± 0.30%. The “Loading Efficiency” value [1, 5] was 3.76 ± 0.45%, the “Loading Efficiency” value [1, 6] was 6.38 ± 0.79% and the “Loading Capacity” value [1, 7] was 0.71 ± 0.09 mg/mL. The “Loading Capacity” value [1, 8] was 3.46 ± 1.24 mg/mL, the “Loading Efficiency” value [1, 8] was 7.76 ± 2.77% and the “Loading Capacity” value [1, 9] was 0.45 ± 0.11 mg/mL. For the same compound, the “Loading Efficiency” value [1, 9] was 8.71 ± 2.10%, the “Loading Efficiency” value ([1]; PAH/TPP, initial dye 1 mg/ml, 2.5% PAH) was 1.59 ± 0.65% and the “Loading Efficiency” value [1, 10] was 3.78 ± 0.32%. For the same compound, the “Loading Efficiency” value [1, 11] was 6.27 ± 1.04%, the “Loading Capacity” value [1, 12] was 0.65 ± 0.11 mg/mL and the “Loading Capacity” value [1, 13] was 2.74 ± 0.58 mg/mL. For the same compound, the “Loading Efficiency” value [1, 13] was 6.62 ± 1.41%, the “binding” value (PAH/PPi complexes) was “binds only very weakly and non-cooperatively” and the “binding” value (PAH/TPP complexes) was “binds only very weakly and non-cooperatively”.
For tripolyphosphate [TPP], the “pKa,3” value [3] is listed as 2.8, the “pKa,4” value [3] is listed as 6.5 and the “pKa,5” value [3] is listed as 9.2.
